Experiments:
[1] = Half life in human liver microsomes at 50 uM preincubated for 5 mins followed by NADPH addition by LC/MS-MS analysis; format: ADME
[2] = Agonist activity at human-mouse chimeric GPR119 expressed in tetracycline-induced Flp-In-T-Rex-HEK293 cells assessed as accumulation of cAMP after 50 mins by HTRF assay; format: cell-based; settings: HEK293, 50 min
Mus musculus [3] = test: Antidiabetic activity in C57BL/6J mouse assessed as reduction in plasma glucose level at 0.03 mg/kg, po administered for 60 mins followed by glucose challenge measured for 30 to 120 mins by OGTT relative to vehicle-treated control; format: functional; set-up: scale not given: the % may be the effect or the level left
Mus musculus [4] = test: Antidiabetic activity in C57BL/6J mouse assessed as reduction in plasma glucose level at 0.1 mg/kg, po administered for 60 mins followed by glucose challenge measured for 30 to 120 mins by OGTT relative to vehicle-treated control; format: functional; set-up: scale not given: the % may be the effect or the level left

Row | half-life at 50 µM [1] | EC50 [2] | Compound | Activity (Mus musculus [3]) | Activity (Mus musculus [4])
1 | 94 min | 2 nM | Cc1nc(-n2cc(Cl)c(OC3CCN(c4ncc(Cl)cn4)CC3)cc2=O)ccc1N1CCC(O)C1=O (configuration not stated) | 36% | 
2 | 120 min | 4 nM | CCCc1cnc(N2CCC(Oc3cc(=O)n(-c4ccc(N5CCC(O)C5=O)c(C)n4)cc3Cl)CC2)nc1 (configuration not stated) | 19% | 
3 | 78 min | 4 nM | Cc1nc(-n2cc(Cl)c(OC3CCN(c4ncc(Cl)cn4)CC3)cc2=O)ccc1N1CC[C@H](O)C1=O | 26% | 
4 | 97 min | 3 nM | Cc1nc(-n2cc(Cl)c(OC3CCN(c4ncc(Cl)cn4)CC3)cc2=O)ccc1N1CC[C@@H](O)C1=O | 39% | 
5 | 76 min | 16 nM | CCCc1cnc(N2CCC(Oc3ccn(-c4ccc(N5CCC(O)C5=O)c(C)n4)c(=O)c3)CC2)nc1 (configuration not stated) |  | 21%
6 | 101 min | 10 nM | Cc1nc(-n2ccc(OC3CCN(c4ncc(Cl)cn4)CC3)cc2=O)ccc1N1CCC(O)C1=O (configuration not stated) |  | 
